Patent US20260184712A1, “Heterocyclic Compounds as ENT Inhibitors and Compounds for Use in the Treatment of Cancers” (iTeos Belgium SA, priority 2022, published 2026)

What was measured:
Type in all cases: cell-based
[1] = system: stimulated primary human T cells; test: T cell proliferation assay, Condition A (X-VIVO15); conditions: Condition A: X-VIVO15 medium, anti-CD3/anti-CD28 beads, ATP, 4 days, CFSE-lo T cells
Procedure, shortened: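 CFSE-labelled human CD3+ T cells (2×10^4/well) in serum-free X-VIVO15 were activated with anti-CD3/CD28 beads (1 bead:2 cells), pre-incubated 30 min with inhibitor, then cultured with 100 uM ATP for 4 days at 37 °C. Flow cytometry measured %CFSE^lo cells, and IC50/IC90 came from log-concentration curve fits.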

[2] = target: T1, Human ENT2 (Homo sapiens, UniProt Q14542); test: Adenosine uptake assay, ENT2-mediated transport in MDCKII cells; conditions: MDCKIIENT2-LV cells, probe adenosine 0.5 μM, pre-incubation 30 min, incubation 10 min
T1 construct: expressed in transfected cells
T1 sequence (Q14542 1-456): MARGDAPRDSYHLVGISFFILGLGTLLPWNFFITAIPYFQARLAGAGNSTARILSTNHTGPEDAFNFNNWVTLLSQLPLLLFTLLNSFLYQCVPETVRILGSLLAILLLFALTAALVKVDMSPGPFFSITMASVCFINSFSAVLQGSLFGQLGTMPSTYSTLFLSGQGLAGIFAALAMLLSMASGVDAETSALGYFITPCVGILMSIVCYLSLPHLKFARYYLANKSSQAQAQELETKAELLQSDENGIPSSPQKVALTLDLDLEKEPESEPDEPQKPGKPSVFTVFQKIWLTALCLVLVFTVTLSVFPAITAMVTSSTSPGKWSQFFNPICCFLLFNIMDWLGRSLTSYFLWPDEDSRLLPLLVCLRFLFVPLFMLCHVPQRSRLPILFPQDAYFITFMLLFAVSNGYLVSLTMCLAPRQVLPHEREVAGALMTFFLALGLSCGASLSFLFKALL
Protocol: The goal of this study was to determine the potency and selectivity of ENT1 inhibitors by measuring ENT1 and ENT2-mediated transport using an in vitro cellular uptake assay.
Human ENT1 and ENT2 transporters were stably expressed in Madin-Darby Canine Kidney II (MDCKII) cells via transduction. Cell lines overexpressing the relevant ENT1 or ENT2 molecules were preincubated with a dose range of the relevant compound for 30 minutes before introduction of the specific substrate at the concentration indicated in the Table assay parameters below. The transporter assay was conducted for the time specified in the Table assay parameters before the specific uptake of the substrate into the cells was quantified. Specific uptake was determined by comparing the uptake from the cells treated with the relevant compounds and the uptake by cells not overexpressing the transporter in question.
Specific uptake for each concentration of the test sample was normalized to the DMSO control value to generate a relative accumulation value (or relative transporter activity). Data were plotted against the log molar concentration of the test reagent used. IC50 values were generated with Prism version 9.4.1 and the following function: log(inhibitor) vs. response—Variable slope (four parameters).

[3] = system: stimulated primary human T cells; test: T cell proliferation assay, Condition B (X-VIVO15, 2% HSA and 0.1% AAG); conditions: Condition B: X-VIVO15 medium containing HSA and α1-Acid Glycoprotein, anti-CD3/anti-CD28 beads, ATP, 4 days, CFSE-lo T cells
Procedure, shortened: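 CFSE-labelled CD3+ T cells from healthy donors (2×10^4/well) in X-VIVO15 with 2% HSA and 0.1% AAG were stimulated with anti-CD3/CD28 beads. After 30 min pre-incubation with inhibitor, ATP was added and cells were cultured 4 days at 37° C. Flow cytometry gave % CFSE^lo cells, with IC50/IC90 and pICF from curve fits.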

Compound | IC50 ([1]; Homo sapiens, T-cell, 96 h) [nM] | IC50 [2] [nM] | IC50 ([3]; Homo sapiens, T-cell, 96 h) [nM] | IC50 [1] [nM] | IC50 [3] [nM]
COc1cc(C(=O)OCCCN2CCCN(CCCOC(=O)c3cc(OC)c(OC)c(OC)c3)CC2)cc(OC)c1OC [Dilazep, dilazep, reference compound] | 1 to 20 | > 1000 | 20 to 500 | – | –
O=[N+]([O-])c1ccc(CSc2ncnc3c2ncn3[C@@H]2O[C@H](CO)[C@@H](O)[C@H]2O)cc1 [NBMPR, reference compound] | – | > 1000 | – | 1 to 20 | 20 to 500
